The values below come from patent US10670605B2, “Cysteine reactive probes and uses thereof” (The Scripps Research Institute, priority 2015, dated 2020).

Common to all, as to test: Competitive isoTOP-ABPP, cell lysates
What all share (format): binding

One test addresses T1, PDIA6 C190 (Q15084) (Homo sapiens, UniProt Q15084).
T1 sequence (Q15084 20-440): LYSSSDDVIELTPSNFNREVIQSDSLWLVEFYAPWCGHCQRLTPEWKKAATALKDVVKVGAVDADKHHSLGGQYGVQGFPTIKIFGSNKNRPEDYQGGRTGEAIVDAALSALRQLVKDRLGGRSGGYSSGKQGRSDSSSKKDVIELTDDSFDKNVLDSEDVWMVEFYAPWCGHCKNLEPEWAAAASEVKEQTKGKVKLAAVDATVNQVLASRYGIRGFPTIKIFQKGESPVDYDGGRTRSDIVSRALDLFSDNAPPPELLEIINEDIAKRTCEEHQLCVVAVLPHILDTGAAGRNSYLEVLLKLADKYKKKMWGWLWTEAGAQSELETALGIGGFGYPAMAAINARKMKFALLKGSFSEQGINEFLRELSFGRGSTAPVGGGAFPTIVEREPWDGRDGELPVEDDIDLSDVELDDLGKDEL
The note with it: 500 μm.

In another test the target is STAT3 C259 (P40763) (Homo sapiens, UniProt P40763). Conditions: 500 μm.
For a further test, the target named is T2, PDIA6 C55 (Q15084) (Homo sapiens, UniProt Q15084).
T2 sequence (Q15084 20-440): T1 sequence (Q15084 20-440)
Conditions: 500 μm.

The target of another test is T3, PCK2 C306 (Q16822) (Homo sapiens, UniProt Q16822).
T3 sequence (Q16822 33-640): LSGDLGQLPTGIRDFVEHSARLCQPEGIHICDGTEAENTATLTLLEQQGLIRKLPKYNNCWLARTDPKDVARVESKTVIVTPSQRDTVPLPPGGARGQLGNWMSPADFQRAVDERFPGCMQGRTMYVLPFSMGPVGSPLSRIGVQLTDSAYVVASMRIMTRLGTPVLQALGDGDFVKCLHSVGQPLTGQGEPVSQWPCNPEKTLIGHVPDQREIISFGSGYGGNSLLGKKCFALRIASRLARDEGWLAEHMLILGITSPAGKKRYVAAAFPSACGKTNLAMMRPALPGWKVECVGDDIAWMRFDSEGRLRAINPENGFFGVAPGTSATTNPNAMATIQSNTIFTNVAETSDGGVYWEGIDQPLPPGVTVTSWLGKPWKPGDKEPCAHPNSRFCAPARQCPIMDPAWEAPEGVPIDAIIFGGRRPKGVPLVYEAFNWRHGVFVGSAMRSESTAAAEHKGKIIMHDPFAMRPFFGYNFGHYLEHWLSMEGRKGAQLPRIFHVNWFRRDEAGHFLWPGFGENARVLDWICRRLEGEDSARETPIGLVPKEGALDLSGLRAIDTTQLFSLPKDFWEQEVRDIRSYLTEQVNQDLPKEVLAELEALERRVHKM
The note with it: 500 μm.

The target of the next test is IDH1 C269 (O75874) (Homo sapiens, UniProt O75874). Conditions: 500 μm, in-vitro_ramos_231.
The next test has as its target XPO1 C528 (O14980) (Homo sapiens, UniProt O14980). Conditions: 500 μm.
A further test concerns the target GSTP1 C48 (P09211) (Homo sapiens, UniProt P09211). The note with it: 500 μm.
The next test has as its target GNB2L1 C182 (P63244) (Homo sapiens, UniProt P63244). The note with it: 500 μm.
Another test deals with SMARCC2 C145 (Q8TAQ2) (Homo sapiens, UniProt Q8TAQ2). Conditions: 500 μm.
The next test has as its target UBE2L3 C86 (P68036) (Homo sapiens, UniProt P68036). The note with it: 500 μm.
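Wherever isoTOP-ABPP reactivity profile ratio, P09211 C48 is given: Heavy/light ratio DMSO over fragment-treated so higher means more cysteine engagement.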
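Wherever isoTOP-ABPP reactivity profile ratio, P63244 C182 is given: Heavy/light ratio DMSO over fragment-treated so higher means more cysteine engagement.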
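Wherever isoTOP-ABPP reactivity profile ratio, P68036 C86 is given: Heavy/light ratio DMSO over fragment-treated so higher means more cysteine engagement.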
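Wherever isoTOP-ABPP reactivity profile ratio, Q15084 C190 is given: Heavy/light ratio DMSO over fragment-treated so higher means more cysteine engagement.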

Regarding `C=CC(=O)Nc1cc(F)c(N2CCN(C(=O)OC(C)(C)C)CC2)c(F)c1` [compound 38], the “isoTOP-ABPP reactivity ratio, Q15084_C190” value at PDIA6 C190 (Q15084) (in-vitro_ramos_231) was 1.1. At STAT3 C259 (P40763) (in-vitro_ramos), the “isoTOP-ABPP reactivity ratio, P40763_C259” value is 1.5. In addition, the “isoTOP-ABPP reactivity ratio, Q15084_C55” value at PDIA6 C55 (Q15084) (in-vitro_ramos) amounted to 1.3; on PDIA6 C55 (Q15084) (in-vitro_ramos_231) it was 1.0. The “isoTOP-ABPP reactivity ratio, Q16822_C306” value on PCK2 C306 (Q16822) (in-vitro_ramos_231) is recorded as 1.0. In addition, at IDH1 C269 (O75874), the “isoTOP-ABPP reactivity ratio, O75874_C269” value was 0.7. The “isoTOP-ABPP reactivity ratio, O14980_C528” value at XPO1 C528 (O14980) (in-vitro_ramos_231) stood at 1.0. Besides, at GSTP1 C48 (P09211) (in-vitro_ramos_231), the “isoTOP-ABPP reactivity ratio, P09211_C48” value is reported as 1.9. In addition, the “isoTOP-ABPP reactivity ratio, P63244_C182” value on GNB2L1 C182 (P63244) (in-vitro_ramos_231) is recorded as 1.1. Besides, the “isoTOP-ABPP reactivity ratio, Q8TAQ2_C145” value on SMARCC2 C145 (Q8TAQ2) (in-vitro_ramos) is recorded as 1.9; at SMARCC2 C145 (Q8TAQ2) (in-vitro_ramos_231), 1.1. In addition, at UBE2L3 C86 (P68036) (in-vitro_ramos), the “isoTOP-ABPP reactivity ratio, P68036_C86” value is 1.5.
Consider `N#CC(=Cc1ccc(-c2ccccc2Cl)o1)C(N)=O` [compound 42], for which the “isoTOP-ABPP reactivity profile ratio, Q15084_C55” value on PDIA6 C55 (Q15084) (in-vitro_ramos) turned out to be 0.9. Moreover, the “isoTOP-ABPP reactivity profile ratio, Q16822_C306” value at PCK2 C306 (Q16822) (in-vitro_ramos) worked out at 0.8. For the same molecule, the “isoTOP-ABPP reactivity profile ratio, P09211_C48” value on GSTP1 C48 (P09211) (in-vitro_ramos) was 0.7. Besides, the “isoTOP-ABPP reactivity profile ratio, P63244_C182” value at GNB2L1 C182 (P63244) (in-vitro_ramos) worked out at 0.8. For the same molecule, the “isoTOP-ABPP reactivity profile ratio, Q8TAQ2_C145” value at SMARCC2 C145 (Q8TAQ2) (in-vitro_ramos) worked out at 1.0. In addition, the “isoTOP-ABPP reactivity profile ratio, P68036_C86” value on UBE2L3 C86 (P68036) (in-vitro_ramos) was 0.8.
For the molecule `CC1CCc2ccccc2N1C(=O)CCl` (stereo not shown) [compound 45], the “isoTOP-ABPP reactivity profile ratio, Q16822_C306” value on PCK2 C306 (Q16822) (in-vitro_ramos_231) was 3.3. Further, the “isoTOP-ABPP reactivity profile ratio, O75874_C269” value at IDH1 C269 (O75874) amounted to 20.0. In addition, at GSTP1 C48 (P09211) (in-vitro_ramos_231), the “isoTOP-ABPP reactivity profile ratio, P09211_C48” value amounted to 19.7. Further, the “isoTOP-ABPP reactivity profile ratio, P63244_C182” value on GNB2L1 C182 (P63244) (in-vitro_ramos_231) worked out at 0.9.
For the molecule `C=CC(=O)N(c1ccccc1)C1CCCCC1` [compound 46], on PDIA6 C190 (Q15084) (in-vitro_ramos_231), the “isoTOP-ABPP reactivity profile ratio, Q15084_C190” value stood at 0.9. Also, the “isoTOP-ABPP reactivity profile ratio, P40763_C259” value on STAT3 C259 (P40763) (in-vitro_ramos_231) came to 1.2. The “isoTOP-ABPP reactivity profile ratio, Q15084_C55” value on PDIA6 C55 (Q15084) (in-vitro_ramos_231) worked out at 0.8. At PCK2 C306 (Q16822) (in-vitro_ramos_231), the “isoTOP-ABPP reactivity profile ratio, Q16822_C306” value stood at 0.9. In addition, the “isoTOP-ABPP reactivity profile ratio, O75874_C269” value on IDH1 C269 (O75874) is listed as 0.6. In addition, the “isoTOP-ABPP reactivity profile ratio, O14980_C528” value at XPO1 C528 (O14980) (in-vitro_ramos_231) came out at 0.7. At GSTP1 C48 (P09211) (in-vitro_ramos_231), the “isoTOP-ABPP reactivity profile ratio, P09211_C48” value stood at 1.0. Moreover, the “isoTOP-ABPP reactivity profile ratio, P63244_C182” value on GNB2L1 C182 (P63244) (in-vitro_ramos_231) is reported as 0.8. Moreover, on SMARCC2 C145 (Q8TAQ2) (in-vitro_ramos_231), the “isoTOP-ABPP reactivity profile ratio, Q8TAQ2_C145” value came out at 1.0. The “isoTOP-ABPP reactivity profile ratio, P68036_C86” value on UBE2L3 C86 (P68036) (in-vitro_ramos_231) is reported as 1.2.
With `O=C(CCl)N1CCc2cc(Br)ccc21` [compound 50], the “isoTOP-ABPP reactivity profile ratio, Q15084_C55” value at PDIA6 C55 (Q15084) (in-vitro_ramos_231) came to 1.3. Moreover, the “isoTOP-ABPP reactivity profile ratio, Q16822_C306” value at PCK2 C306 (Q16822) (in-vitro_ramos_231) is listed as 2.7. Further, on IDH1 C269 (O75874), the “isoTOP-ABPP reactivity profile ratio, O75874_C269” value is reported as 20.0. Moreover, the “isoTOP-ABPP reactivity profile ratio, P09211_C48” value at GSTP1 C48 (P09211) (in-vitro_ramos_231) is 2.3. In addition, on GNB2L1 C182 (P63244) (in-vitro_ramos_231), the “isoTOP-ABPP reactivity profile ratio, P63244_C182” value is given as 0.8. Moreover, on SMARCC2 C145 (Q8TAQ2) (in-vitro_ramos_231), the “isoTOP-ABPP reactivity profile ratio, Q8TAQ2_C145” value is recorded as 2.8.
`O=C(CCl)Nc1cccc2ncccc12` [compound 51]: the “isoTOP-ABPP reactivity profile ratio, Q15084_C190” value at PDIA6 C190 (Q15084) (in-vitro_ramos) is 5.6. Further, the “isoTOP-ABPP reactivity profile ratio, Q15084_C55” value at PDIA6 C55 (Q15084) (in-vitro_ramos) is given as 2.7; at PDIA6 C55 (Q15084) (in-vitro_ramos_231), 2.5. For the same molecule, the “isoTOP-ABPP reactivity profile ratio, Q16822_C306” value on PCK2 C306 (Q16822) (in-vitro_ramos) amounted to 0.8. Further, the “isoTOP-ABPP reactivity profile ratio, O14980_C528” value on XPO1 C528 (O14980) (in-vitro_ramos) came to 0.9. Besides, the “isoTOP-ABPP reactivity profile ratio, P09211_C48” value on GSTP1 C48 (P09211) (in-vitro_ramos) is 1.0; at GSTP1 C48 (P09211) (in-vitro_ramos_231), 1.1. Moreover, the “isoTOP-ABPP reactivity profile ratio, P63244_C182” value at GNB2L1 C182 (P63244) (in-vitro_ramos) was 0.9; at GNB2L1 C182 (P63244) (in-vitro_ramos_231), 0.7. The “isoTOP-ABPP reactivity profile ratio, Q8TAQ2_C145” value at SMARCC2 C145 (Q8TAQ2) (in-vitro_ramos) is 1.1. At UBE2L3 C86 (P68036) (in-vitro_ramos), the “isoTOP-ABPP reactivity profile ratio, P68036_C86” value is reported as 1.0.
